SMILES strings stand for the structures. Some results are limits rather than exact numbers.

The subject of data set [1] is HeLa (cervical adenocarcinoma) cells. The data set is described as follows: MTT antiproliferative assay, HeLa. Format: cell-based. The note with it: Homo sapiens, 72 h, mean ± SD of three independent experiments. Summed up:
(§1)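 Adherent cells (2 × 10^4 cells/mL) or suspension cells (1 × 10^5 cells/mL) were exposed 24 h after plating to five 10-fold dilutions (10^−7 to 10^−4 M) for 72 h. MTT was then added for 4 h at 37 °C and absorbance read at 595 nm. GI50 came from variable-slope log(inhibitor) vs normalized response fits.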
On the technique in general: Tetrazolium dyes change colour on reduction, which living cells bring about.

In data set [2] the test system is MDCK1 (Madin–Darby canine kidney) cells. In words: MTT antiproliferative assay, non-tumor MDCK1 cells. The note with it: Canis lupus familiaris, MDCK1, 72 h, mean ± SD of three independent experiments, normal cells. Format: cell-based. Summed up: as §1
Data set [3] relates to human fibroblasts (BJ). In words: MTT antiproliferative assay, normal BJ fibroblasts. Format: cell-based. The settings on record: Homo sapiens, Fibroblast, 72 h, MTT, mean ± SD of three independent experiments; normal cells. The gist of the method:
as §1

Data set [4] relates to HuT78 (T-cell lymphoma) cells. In words: MTT antiproliferative assay, HuT78. The format is cell-based, human. The settings on record: for IC50: Homo sapiens, HuT78, 72 h, 72 h, MTT, mean ± SD of three independent experiments; for SI (BJ) HuT78: SI = IC50 BJ / IC50 HuT78; for SI (MDCK) HuT78: SI = IC50 MDCK1 / IC50 HuT78. The gist of the method: as §1
Data set [5] relates to CaCo-2 (colon adenocarcinoma) cells. The data set is described as follows: MTT antiproliferative assay, CaCo-2. The format is cell-based, human. The settings on record: Homo sapiens, Caco-2; 72 h, MTT, mean ± SD of three independent experiments. Summed up: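 CaCo-2 cells, plated at 2 × 10^4 cells/mL in DMEM with 10 % FBS at 37 °C/5% CO2, were treated 24 h later with five 10-fold dilutions (10^−7 to 10^−4 M) for 72 h. Viability was measured by MTT (4 h, formazan dissolved in DMSO, OD 595 nm) against background and untreated controls. GI50 came from log-concentration versus percent-inhibition fits.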

Take `Fc1ccc2nc(-c3ccc(OCc4cn(Cc5ccccc5)nn4)c(F)c3)sc2c1` [25b, 6-Fluoro-2-(3-fluoro-4-((1-benzyl-1H-1,2,3-triazol-4-yl)methoxy)phenyl)benzothiazole]: the melting point (in general, the temperature of the solid-liquid transition) fell in the range of 205 to 208 °C. Also, the IC50 (as a rule, the concentration that inhibits the measured activity by half) in data set [1] is over 100 µM. In data set [2], this compound showed an IC50 of 51.3 ± 4.6 µM. For the same compound, the IC50 in data set [3] was over 100 µM. For the same compound, in data set [4], the IC50 was 19.7 ± 10.6 µM, the “SI (BJ) HuT78” value was found to be 5.07 and the “SI (MDCK) HuT78” value was determined as 2.6. Further, in data set [5], the IC50 is over 100 µM.

`COc1cc(-c2nc3ccc(F)cc3s2)ccc1OCc1cn(Cc2ccccc2)nn1` [25c, 6-Fluoro-2-(3-methoxy-4-((1-benzyl-1H-1,2,3-triazol-4-yl)methoxy)phenyl)benzothiazole] gave a melting point of 180 to 183 °C. This compound yielded a concentration for half-maximal inhibition (IC50) in data set [1] of over 100 µM. The compound also displayed an IC50 in data set [2] of 22.8 ± 4.9 µM. This compound registered an IC50 in data set [3] of over 100 µM. The compound also gave an IC50 in data set [4] of over 100 µM. In addition, the IC50 in data set [5] is 77.6 ± 43.3 µM.

Regarding `c1ccc(Cn2cc(COc3ccc(-c4nc5ccccc5s4)cc3)nn2)cc1` [26a, 2-(4-((1-Benzyl-1H-1,2,3-triazol-4-yl)methoxy)phenyl)benzothiazole], the melting point was in the range of 210 to 214 °C. The compound further gave an IC50 in data set [1] of over 100 µM. This compound came in with an IC50 in data set [2] of 36.7 ± 18 µM. In addition, the IC50 in data set [3] is over 100 µM. Further, the IC50 in data set [4] is over 100 µM. Besides, in data set [5], the IC50 is over 100 µM.

The compound `Fc1cc(-c2nc3ccccc3s2)ccc1OCc1cn(Cc2ccccc2)nn1` [26b, 2-(3-Fluoro-4-((1-benzyl-1H-1,2,3-triazol-4-yl)methoxy)phenyl)benzothiazole] had a melting point of 198 to 201 °C. The same compound displayed a concentration for half-maximal inhibition (IC50) in data set [1] of over 100 µM. Besides, in data set [2], the IC50 is 64.8 ± 38.5 µM. In data set [3], the IC50 was over 100 µM. This compound also showed an IC50 in data set [4] of over 100 µM. For the same compound, the IC50 in data set [5] is over 100 µM.

Consider `COc1cc(-c2nc3ccccc3s2)ccc1OCc1cn(Cc2ccccc2)nn1` [26c, 2-(3-Methoxy-4-((1-benzyl-1H-1,2,3-triazol-4-yl)methoxy)phenyl)benzothiazole], for which the melting point lay within 170 to 173 °C. Besides, the midpoint of inhibition in data set [1], the IC50, lay at 23.3 ± 15.3 µM. This compound returned an IC50 in data set [2] of 8.5 ± 6.4 µM. This compound returned an IC50 in data set [3] of 76.7 ± 27.7 µM. In data set [4], it took 23.7 ± 5.2 µM to reach half-maximal inhibition (IC50) and the “SI (BJ) HuT78” value is 3.24. In data set [5], this compound came in with an IC50 of over 100 µM.

Compound `Cl.O=C(COc1ccc(-c2nc3ccc(C4=NCCN4)cc3s2)cc1)c1ccccc1` [34a, 2-(4-(2-Oxo-2-phenylethoxy)phenyl)-6-(4,5-dihydro-1H-imidazol-2-yl)benzothiazole hydrochloride] gave a melting point of over 250 °C. The same compound returned an IC50 in data set [1] of 3.4 ± 0.2 µM. Also, it took 2.8 ± 0.3 µM to reach half-maximal inhibition in data set [2] (IC50). In addition, the IC50 in data set [3] stood at 3.9 ± 0.3 µM. In data set [4], the concentration for half-maximal inhibition (IC50) was found to be 2.2 ± 0.3 µM. Also, the 50% inhibitory concentration (IC50) in data set [5] was 4 ± 0.2 µM.

With `Cl.O=C(COc1ccc(-c2nc3ccc(C4=NCCN4)cc3s2)cc1F)c1ccccc1` [34b, 2-(3-Fluoro-4-(2-oxo-2-phenylethoxy)phenyl)-6-(4,5-dihydro-1H-imidazol-2-yl)benzothiazole hydrochloride], the melting point was over 240 °C. Besides, the half-maximal inhibitory concentration (IC50) in data set [1] turned out to be 4.5 ± 4.3 µM. The IC50 in data set [2] stood at 2.2 ± 0.3 µM. In data set [3], 11.2 ± 6 µM corresponded to half-maximal inhibition (IC50). In data set [4], this compound yielded a concentration for half-maximal inhibition (IC50) of 2.1 ± 0.2 µM. For the same compound, the concentration for half-maximal inhibition (IC50) in data set [5] came out at 7 ± 5.4 µM.

Consider `COc1cc(-c2nc3ccc(C4=NCCN4)cc3s2)ccc1OCC(=O)c1ccccc1.Cl` [34c, 2-(3-Methoxy-4-(2-oxo-2-phenylethoxy)phenyl)-6-(4,5-dihydro-1H-imidazol-2-yl)benzothiazole hydrochloride], for which the melting point was over 240 °C. In data set [1], this compound gave an IC50 of 3.1 ± 0.2 µM. The compound also had an IC50 in data set [2] of 2.1 ± 0.3 µM. In data set [3], this compound came in with an IC50 of 4 ± 0.1 µM. Moreover, 1.8 ± 0.7 µM corresponded to half-maximal inhibition in data set [4] (IC50). In data set [5], this compound displayed a concentration for half-maximal inhibition (IC50) of 6.3 ± 3 µM.

With `Cl.c1ccc(COc2ccc(-c3nc4ccc(C5=NCCN5)cc4s3)cc2)nc1` [35a, 2-(4-(Pyridin-2-ylmethoxy)phenyl)-6-(4,5-dihydro-1H-imidazol-2-yl)benzothiazole hydrochloride], the melting point was over 250 °C. Moreover, the IC50 in data set [1] was found to be 18.9 ± 3.6 µM. In data set [2], this compound gave an IC50 of 2.7 ± 0.3 µM. The compound also had a half-inhibitory concentration (IC50) in data set [3] of 3.2 ± 0.3 µM. It took 1.4 ± 0.2 µM to reach half-maximal inhibition in data set [4] (IC50). The compound also displayed an IC50 in data set [5] of 26.7 ± 2.1 µM.

Turning to `COc1cc(-c2nc3ccc(C4=NCCN4)cc3s2)ccc1OCc1ccccn1.Cl` [35c, 2-(3-Methoxy-4-(pyridin-2-ylmethoxy)phenyl)-6-(4,5-dihydro-1H-imidazol-2-yl)benzothiazole hydrochloride], the melting point was in the range of 219 to 223 °C. In data set [1], this compound gave a concentration for half-maximal inhibition (IC50) of 21.8 ± 5.5 µM. In data set [2], the IC50 worked out at 7.5 ± 3.5 µM. In data set [3], this compound had an IC50 of 6.7 ± 4.9 µM. In data set [4], this compound had an IC50 of 6.2 ± 2.7 µM. In data set [5], this compound gave a concentration for half-maximal inhibition (IC50) of 18.2 ± 3.3 µM.

Compound `Cl.Fc1cc(-c2nc3ccc(C4=NCCN4)cc3s2)ccc1OCc1c[nH]nn1` [36b, 2-(3-Fluoro-4-((1H-1,2,3-triazol-4-yl)methoxy)phenyl)-6-(4,5-dihydro-1H-imidazol-2-yl)benzothiazole hydrochloride] had a melting point of 234 to 237 °C. In data set [1], the concentration for half-maximal inhibition (IC50) stood at 30 ± 1 µM. The IC50 in data set [2] was 25.2 ± 1.3 µM. For the same compound, in data set [3], the concentration for half-maximal inhibition (IC50) amounted to 32.6 ± 3.4 µM. In addition, in data set [4], the concentration for half-maximal inhibition (IC50) stood at 1.8 ± 0.4 µM and the “SI (MDCK) HuT78” value is reported as 14. Besides, in data set [5], the IC50 came to 38.3 ± 1.2 µM.

Take `Cl.c1ccc(Cn2cc(COc3ccc(-c4nc5ccc(C6=NCCN6)cc5s4)cc3)nn2)cc1` [37a, 2-(4-((1-Benzyl-1H-1,2,3-triazol-4-yl)methoxy)phenyl)-6-(4,5-dihydro-1H-imidazol-2-yl)benzothiazole hydrochloride]: the melting point is 153 to 156 °C. For the same compound, in data set [1], half-maximal inhibition (IC50) was put at 3.6 ± 0.1 µM. The same compound had an IC50 in data set [2] of 1.5 ± 0.3 µM. Further, inhibition in data set [3] was half-maximal at 4.3 ± 3.6 µM (IC50). The IC50 in data set [4] stood at 1.6 ± 0.8 µM. In data set [5], this compound yielded an IC50 of 3.7 ± 1.5 µM.

`Cl.Fc1cc(-c2nc3ccc(C4=NCCN4)cc3s2)ccc1OCc1cn(Cc2ccccc2)nn1` [37b, 2-(3-Fluoro-4-((1-benzyl-1H-1,2,3-triazol-4-yl)methoxy)phenyl)-6-(4,5-dihydro-1H-imidazol-2-yl)benzothiazole hydrochloride] returned a melting point of over 240 °C. Moreover, in data set [1], half-maximal inhibition (IC50) required 4 ± 0.4 µM. Further, the 50% inhibitory concentration (IC50) in data set [2] was found to be 2.4 ± 0.3 µM. In data set [3], this compound gave an IC50 of 5.3 ± 2.9 µM. Further, in data set [4], the concentration for half-maximal inhibition (IC50) turned out to be 2.1 ± 0.2 µM and the “SI (BJ) HuT78” value came out at 2.52. In data set [5], this compound returned a half-maximal inhibitory concentration (IC50) of 6.1 ± 2.7 µM.

`COc1cc(-c2nc3ccc(C4=NCCN4)cc3s2)ccc1OCc1cn(Cc2ccccc2)nn1.Cl` [37c, 2-(3-Methoxy-4-((1-benzyl-1H-1,2,3-triazol-4-yl)methoxy)phenyl)-6-(4,5-dihydro-1H-imidazol-2-yl)benzothiazole hydrochloride] came in with a melting point of over 240 °C. Besides, the midpoint of inhibition in data set [1], the IC50, lay at 3.4 ± 0.2 µM. In data set [2], the concentration for half-maximal inhibition (IC50) worked out at 2.6 ± 0.1 µM. In data set [3], this compound registered a 50% inhibitory concentration (IC50) of 4.8 ± 3.5 µM. In data set [4], the 50% inhibitory concentration (IC50) turned out to be 3 ± 1 µM and the “SI (BJ) HuT78” value is given as 1.6. Further, the IC50 in data set [5] worked out at 4.5 ± 2.7 µM.

For the origin of these results see publication PMC9785280, “Synthesis, Antiproliferative Evaluation and QSAR Analysis of Novel Halogen- and Amidino-Substituted Benzothiazoles and Benzimidazoles” (International Journal of Molecular Sciences, 2022).
